Assay results as given in patent US8609432B2, “Method and kit for detection of autoimmune chronic urticaria” (priority 2005, dated 2013).

How the values were obtained:
[1] = tested on: basophils, CD203c expression; details: cited from earlier work
[2] = tested on: basophils, CD63 expression; details: cited from earlier work
[3] = tested on: basophils (CD203c/IgE positive cells) in donor whole blood; assay: Measurement of CD203c surface expression on donor basophils by flow cytometry; type: cell-based, human; details: positive controls, donor heparinized whole blood incubated 10 minutes at 37° C.; above buffer baseline; mean ±SEM, n=4
Method: Whole blood from seven normal individuals was screened and one donor was identified based on the marked upregulation of CD203c on basophils (CD203c/IgE positive cells) in response to fMLP and anti-FcεRIα antibody.
The test was carried out on heparinized blood within 3-4 hours after drawing the donor's blood. Two hundred μL aliquots of the donor's heparinized whole blood were incubated for 10 minutes at 37° C. with 40 μL of sera from CU patients, normal controls, or IgG depleted sera. For controls, 40 μL basophil stimulation buffer (20 mM HEPES, 125 mM NaCl, 5 mM KCl, 2.5 mM CaCl2, 1 mM MgCl2, 0.5 mM glucose, and 0.1% BSA, pH 7.4) was added to 200 μL of donor's blood and used as the negative control while 40 μL of […] f-Met-Leu-Phe (fMLP, Sigma, St. Louis, Mo.) and 40 μL of a 1:50 dilution of anti-FcεRIα receptor antibody (Upstate, Charlottesville, Va.) in Ca++ and Mg++ free phosphate buffered saline (PBS) were used as positive controls. […] The cells were then analyzed on a FACSCalibur flow cytometer (Becton Dickinson, San Jose, Calif.).
Basophils from whole blood were identified by the presence of CD203c on high expressing IgE positive cells (FIGS. 1A and 1B). The data are expressed as the mean fluorescence intensity or the percentage of CD203c expression. […] This was determined by defining an M1 region on the histogram analysis (FIG. 1C).

| Molecule | induction of CD203c expression [1] | stimulation of CD63 expression [2] | mean percent basophil CD203c expression [3] |
| --- | --- | --- | --- |
| CCCCC[C@H](O)/C=C/[C@H]1C(=O)C[C@H](O)[C@@H]1C/C=C\CCCC(=O)O [PGD2] | strong inducer | does not stimulate |  |
| f-Met-Leu-Phe [fMLP] |  |  | 34.5%±14.6 |
